Tests used:
[1] = system: NKG2DL (MICA-B, ULBP1-3) surface expression; assay: flow cytometry of NKG2DL cell surface expression in cancer cell lines; type: cell-based, human
Procedure: Data are representative of five independent experiments. […] Controls were stained with APC-conjugated anti-human Fc antibody alone without preincubation with NKG2D-Fc. Data are representative of three independent experiments. […] Results are representative of two independent experiments. […] (E) NKG2DL mRNA expression in the colon cancer cell lines was analyzed by qRT-PCR analysis. Data are normalized to GAPDH mRNA levels and are presented as fold-change relative to the expression in DMSO-treated cells (n=5). (F) Lentiviral-based luciferase reporter construct containing the putative ULBP2 promoter (−2415 to 0 bp from the transcription start site: 73 bp upstream of ATG) was transduced into the colon cancer cell lines. Positively transduced cells were selected by puromycin treatment (2 μg/ml) for 2 weeks. […] Data shown are expressed as fold-change relative to the luciferase activity observed in DMSO-treated cells (n=3). * P<0.05, ** P<0.01.
Cell lines were stained with allophycocyanin-conjugated anti-MICA, anti-MICB, or anti-ULBP2 antibodies for 20 min at 4° C. For ULBP1 and ULBP3 staining, cells were first incubated with anti-ULBP1 and anti-ULBP3 antibodies and then with allophycocyanin-conjugated goat anti-mouse IgG antibody. To analyze total NKG2DL cell surface expression, cells were first incubated with human NKG2D-Fc for 20 min at 4° C. and then with allophycocyanin-conjugated mouse anti-human IgG (Fc) antibody. Cells were washed and analyzed on a C6 flow cytometer (Accuri). Data were analyzed using FlowJo software (TreeStar).

TIMP2 and TIMP3 = TIMP2 and TIMP3 ELISA; type: cell-based, human; details: HCT116, 56 μM 3 days
[2] = system: HCT116, HT29, and CAL27 cells; assay: wound-healing assay; type: cell-based, human; details: HCT116, HT29, CAL27
Procedure: The number of cells that invaded the ECM was determined after 24 h. Data are expressed as percentage change in tumor invasion relative to that of DMSO-treated cells (n=3). (D) Wound healing by DMSO- and SPIR-treated HCT116, HT29, and CAL27 cells was compared. Data are calculated as the percentage change in distance of migration relative to that of DMSO-treated cells (n=3). […] Tumor xenografts and lung metastases were detected by bioluminescence imaging on day 25. Data are shown as the average total flux (photons/second)±standard deviation (n=8). (F) The lung metastases (arrows) were confirmed by examining lung tissue sections. * P≤0.05, ** P<0.01, *** P<0.005, **** P<0.0001.
Confluent cell layers of CAL27 and HT29 cells with a 500 μm±50 μm gap were formed by using Ibidi culture inserts (RPI Corp.). Gap distances were measured at various times using a Nikon Eclipse Ti inverted microscope and NIS-Elements software (Nikon).

[3] = system: HCT116 cells, hepatic metastasis; assay: hepatic metastasis model (intrasplenic HCT116); type: in vivo, NSG mice; details: i.p. every other day
Procedure: (B) HCT116 cells were transfected with control KD or RXR-gamma-KD1 siRNA on day 0. […] The mRNA expression of TIMP2 and TIMP3 was analyzed by qRT-PCR on day 5. Data are shown as relative mRNA fold change of SPIR-treated RXR-gamma-KD1 cells to control KD cells (n=3). (C) HCT116 cells were transfected with control KD or RXR-gamma-KD1 siRNA on day 0. […] Data are calculated as the percentage change in distance of migration relative to that of DMSO-treated cells (n=3). (D) HCT116 cells were transfected with control KD, RXR-gamma-KD1, TIMP2-KD or TIMP3-KD siRNA on day 0. […] The number of cells that invaded the ECM was determined after 36 h. Data are expressed as percentage change in tumor invasion relative to that of DMSO-treated cells (n=3). (E) HCT116 cells were transfected with control-KD, TIMP2-KD or TIMP3-KD siRNA on day 0. […] Hepatic metastasis was analyzed by performing bioluminescence imaging on day 10.* P<0.05, ** P<0.005, *** P<0.0001.
Luciferase-expressing HCT116 and HT29 cells were generated by lentiviral transduction of the cells with a CMV promoter-driven luciferase expression construct engineered from the pLL3.7 vector. […] Bioluminescence imaging was performed in a Xenogen imaging system to monitor tumor growth and the data were analyzed using Living Image software (Caliper LifeSciences). […]

RXR-gamma = RXR-gamma reporter assay; type: cell-based, human; details: HCT116 cells
Procedure: The Cignal RXR reporter assay system containing an RXR-gamma-responsive luciferase construct, which encodes the firefly luciferase reporter gene under the control of a minimal CMV promoter and tandem repeats of the RXR-gamma transcriptional response element, was purchased from Qiagen. The experiment was performed in HCT116 cells according to the manufacturer's instructions.

[4] = system: ULBP2 in MR-knockdown 293T cells; assay: ULBP2 surface expression in MR-knockdown 293T cells; type: cell-based, human
Procedure: (A) MR mRNA expression was determined by qRT-PCR in various cell lines (n=3). (B) MR protein expression was determined by Western blot analysis. Data shown are representative of two independent experiments. (C) MR-knockdown 293T cells were generated by lentiviral transduction with an shRNA vector (pLKO.1) targeting MR. The relative mRNA expression of MR was analyzed by qRT-PCR (n=3). […] Data shown are representative of two independent experiments. * P<0.0001.

**Q.** What does the source list for `CC(=O)S[C@@H]1CC2=CC(=O)CC[C@]2(C)[C@H]2CC[C@@]3(C)[C@@H](CC[C@@]34CCC(=O)O4)[C@H]12` [SPIR, spironolactone]?
**A.** ULBP2 expression ([1]; HCT116, HT29, SW480, HCT15, SPIR 56 μM, 3 days, dose-dependent): significantly increased; expression of other NK cell ligands (CD112, CD155, Fas, HLAs) ([1]; HCT116 cells, 56 μM, 3 days): no increase in expression; ULBP1 expression ([1]; SW480 and HCT15 cells): selective increase; MICA/B and ULBP3 expression ([1]; all SPIR-treated cells): enhancement; total NKG2DL expression by soluble NKG2D-Fc staining ([1]; colon cancer cell lines): Consistent NKG2DL upregulation; viability of the cells ([1]; colon cancer cell lines, SPIR treatment): without affecting the viability of the cells; TIMP2 and TIMP3 in culture supernatant (TIMP2 and TIMP3): corresponding increases; cell migration [2]: delayed cell migration; hepatic tumor metastasis [3]: significantly suppresses tumor metastasis; RXR-gamma-responsive luciferase activity (RXR-gamma; 24 h): significantly increased; RXR-gamma protein level (RXR-gamma; Western blot): did not change; upregulation of ULBP2 upon SPIR treatment with shRNA knockdown of MR [4]: did not affect the upregulation of ULBP2

Source: patent US10286000B2, “Retinoid X receptor-gamma agonists and retinoid X receptor-alpha antagonists for treatment of cancer” (St. Jude Children's Research Hospital, Inc., priority 2013, dated 2019)
